In US8946268B2, “Modulators of HEC1 activity and methods therefor” (Taivex Therapeutics, Inc., priority 2010, dated 2015):

Assay: Combination of Hec1 inhibitors with chemotherapeutic inhibitors
Conditions: preliminary data
In the case of `CC[C@]1(O)C[C@@H]2CN(CCc3c([nH]c4ccccc34)[C@@](C(=O)OC)(c3cc4c(cc3OC)N(C)[C@H]3[C@@](O)(C(=O)OC)[C@H](OC(C)=O)[C@]5(CC)C=CCN6CC[C@]43[C@@H]65)C2)C1` [vinblastine], the “effect in combination of Hec1 inhibitors with chemotherapeutic inhibitors” value (“effect in combination of Hec1 inhibitors” below) is reported as “synergistic effect”. With `CC(=O)O[C@H]1C(=O)[C@@]2(C)[C@H]([C@H](OC(=O)c3ccccc3)[C@]3(O)C[C@H](OC(=O)[C@H](O)[C@@H](NC(=O)c4ccccc4)c4ccccc4)C(C)=C1C3(C)C)[C@]1(OC(C)=O)CO[C@@H]1C[C@@H]2O` [Taxol] the “effect in combination of Hec1 inhibitors” value was “synergistic effect”. For `COc1cccc2c1C(=O)c1c(O)c3c(c(O)c1C2=O)C[C@@](O)(C(=O)CO)C[C@@H]3O[C@H]1C[C@H](N)[C@H](O)[C@H](C)O1` [doxorubicin], the “effect in combination of Hec1 inhibitors” value was “at most additive effect”.
